Test system: patients after acute myocardial infarction
Assay: Life quality, Seattle Angina Questionnaire (SAQ), same clinical trial
Assay type: in vivo, human
Description: 3508 patients who were in accordance with the diagnostic standards of AMI for 28 days to 2 years and differentiated as Qi deficiency and blood stagnation syndrome by TCM were studied. 0.5 g Chinese medicine composition prepared by the method of EXAMPLE 1 (Coded as QSYQ) was administrated half an hour after meal, 3 times per day.
There were 19 questions in the Seattle angina questionnaire (SAQ), including 5 parts: physical limitation (PL), anginal stability (AS), anginal frequency (AF), treatment satisfaction (TS) and disease perception (DP). After being given necessary explanation by doctors, the questions were answered independently by patients.
They included the overall survival time, angina pectoris score, TCM symptom score and life quality score, where angina pectoris score, TCM symptom score and life quality score were evaluated at randomization, in 1st, 3rd, 6th, 9th, 12th month after treatment and 18th month after follow-up.
All evaluation results of SAQ were described during the period of observation, and Wilcoxon rank sum test was used for inter-group comparison.
The evaluation results in the SAQ were depicted in different observations, and inter-group comparison was tested by Wilcoxon Rank-sum test.

## CC(=O)Oc1ccccc1C(=O)O [Control group, aspirine]
Baseline, FAS
  SAQ Question 1-9: Other reasons, % of cases: (5.84%)
  SAQ Question 1-9: Other reasons, cases: 99
  SAQ Question 1-9: Severely limited, % of cases: (47.34%)
  SAQ Question 1-9: Severely limited, cases: 802
  SAQ Question 1-9: Slightly limited, % of cases: (8.56%)
  SAQ Question 1-9: Slightly limited, cases: 145
Baseline, PP
  SAQ 2nd question: Clearly increased, % of cases: (3.09%)
  SAQ 2nd question: Clearly increased, cases: 46
  SAQ 2nd question: Clearly reduced, % of cases: (12.16%)
  SAQ 2nd question: Clearly reduced, cases: 181
  SAQ 2nd question: Same, % of cases: (63.00%)
  SAQ 2nd question: Same, cases: 938
  SAQ 2nd question: Slightly increased, % of cases: (6.72%)
  SAQ 2nd question: Slightly increased, cases: 100
  SAQ 2nd question: Slightly reduced, % of cases: (15.04%)
  SAQ 2nd question: Slightly reduced, cases: 224
  SAQ 3rd question: 1-2 times per week, % of cases: (15.04%)
  SAQ 3rd question: 1-2 times per week, cases: 224
  SAQ 3rd question: 1-3 times per day, % of cases: (6.72%)
  SAQ 3rd question: 1-3 times per day, cases: 100
  SAQ 3rd question: <1 time per week, % of cases: (12.16%)
  SAQ 3rd question: <1 time per week, cases: 181
  SAQ 3rd question: No onset, % of cases: (0.00%)
  SAQ 3rd question: No onset, cases: 0
  SAQ 3rd question: ≧3 times per week, % of cases: (63.00%)
  SAQ 3rd question: ≧3 times per week, cases: 938
  SAQ 3rd question: ≧4 times per day, % of cases: (3.09%)
  SAQ 3rd question: ≧4 times per day, cases: 46
  SAQ Question 1-3: Mildly limited, number of patients: 135
  SAQ Question 1-3: Mildly limited, percent of patients: (9.04%)
  SAQ Question 1-3: Moderately limited, number of patients: 44
  SAQ Question 1-3: Moderately limited, percent of patients: (2.95%)
  SAQ Question 1-3: Not limited, number of patients: 985
  SAQ Question 1-3: Not limited, percent of patients: (65.97%)
  SAQ Question 1-3: Other reasons, number of patients: 10
  SAQ Question 1-3: Other reasons, percent of patients: (0.67%)
  SAQ Question 1-3: Severely limited, number of patients: 12
  SAQ Question 1-3: Severely limited, percent of patients: (0.80%)
  SAQ Question 1-3: Slightly limited, number of patients: 307
  SAQ Question 1-3: Slightly limited, percent of patients: (20.56%)
  SAQ Question 1-4: Mildly limited, number of patients: 347
  SAQ Question 1-4: Mildly limited, percent of patients: (23.30%)
  SAQ Question 1-4: Moderately limited, number of patients: 185
  SAQ Question 1-4: Moderately limited, percent of patients: (12.42%)
  SAQ Question 1-4: Not limited, number of patients: 414
  SAQ Question 1-4: Not limited, percent of patients: (27.80%)
  SAQ Question 1-4: Other reasons, number of patients: 14
  SAQ Question 1-4: Other reasons, percent of patients: (0.94%)
  SAQ Question 1-4: Severely limited, number of patients: 51
  SAQ Question 1-4: Severely limited, percent of patients: (3.43%)
  SAQ Question 1-4: Slightly limited, number of patients: 478
  SAQ Question 1-4: Slightly limited, percent of patients: (32.10%)
  SAQ Question 1-5: Mildly limited, number of patients: 309
  SAQ Question 1-5: Mildly limited, percent of patients: (20.72%)
  SAQ Question 1-5: Moderately limited, number of patients: 210
  SAQ Question 1-5: Moderately limited, percent of patients: (14.08%)
  SAQ Question 1-5: Not limited, number of patients: 473
  SAQ Question 1-5: Not limited, percent of patients: (31.72%)
  SAQ Question 1-5: Other reasons, number of patients: 12
  SAQ Question 1-5: Other reasons, percent of patients: (0.80%)
  SAQ Question 1-5: Severely limited, number of patients: 46
  SAQ Question 1-5: Severely limited, percent of patients: (3.09%)
  SAQ Question 1-5: Slightly limited, number of patients: 441
  SAQ Question 1-5: Slightly limited, percent of patients: (29.58%)
  SAQ Question 1-9: Mildly limited, % of cases: (14.67%)
  SAQ Question 1-9: Mildly limited, cases: 213
  SAQ Question 1-9: Moderately limited, % of cases: (20.73%)
  SAQ Question 1-9: Moderately limited, cases: 301
  SAQ Question 1-9: Not limited, % of cases: (2.27%)
  SAQ Question 1-9: Not limited, cases: 33
  SAQ Question 1-9: Other reasons, % of cases: (6.34%)
  SAQ Question 1-9: Other reasons, cases: 92
  SAQ Question 1-9: Severely limited, % of cases: (48.55%)
  SAQ Question 1-9: Severely limited, cases: 705
  SAQ Question 1-9: Slightly limited, % of cases: (7.44%)
  SAQ Question 1-9: Slightly limited, cases: 108
FAS, 1 month after treatment
  8th question: Dissatisfied, patients (%): (0.34%)

— patent US9211310B2, “Use of a Chinese medicine composition in preparing medicaments for treating secondary prevention of myocardial infarction” (TASLY PHARMACEUTICAL GROUP CO., LTD, priority 2010, dated 2015)
